Source: patent US20170349638A1, “COMPANION DIAGNOSTIC TOOL FOR PEPTIDOMIMETIC MACROCYCLES” (AILERON Therapeutics, Inc., priority 2016, published 2017)
Where a SMILES comes first, the peptide text is derived from it. Bridges are numbered along the chain shown (N, C = ends). [ ]: non-standard residue; d: D form. Phe(4-COOH) = N[C@@H](Cc1ccc(C(=O)O)cc1)C(=O)O; R8 = C=CCCCCCC[C@@](C)(N)C(=O)O; Cba = N[C@@H](CC1CCC1)C(=O)O; S5 = C=CCCC[C@](C)(N)C(=O)O; Nle = CCCC[C@H](N)C(=O)O

Experiments:
[1] = Circular dichroism (CD) analysis of alpha-helicity; assay type: physicochemical; conditions: 222 nm; for Molar Ellipticity 50% TFE (222 in 50% TFE): CD buffer with 50% TFE; for Molar Ellipticity 50% TFE (222 in 50% TFE) / Molar Ellipticity Benign (222 in 0% TFE): 0.05 mg/ml, 4° C.; for Molar Ellipticity Benign (222 in 0% TFE): benign CD buffer (20 mM phosphoric acid, pH 2); for Molar Ellipticity TFE − Molar Ellipticity Benign: difference 50% TFE minus benign buffer
Method: A Peltier temperature controller was used to maintain temperature control of the optical cell. Results are expressed as mean molar ellipticity [θ] […] Peptide concentrations were determined by amino acid analysis. Stock solutions of peptides were prepared in benign CD buffer (20 mM phosphoric acid, pH 2). The stocks were used to prepare peptide solutions of 0.05 mg/ml in either benign CD buffer or CD buffer with 50% trifluoroethanol (TFE) for analyses in a 10 mm pathlength cell. […] The average of six scans was reported.

[2] = test system: MCF-7 breast cancer xenograft; assay: MCF-7 breast cancer xenograft study; assay type: in vivo, female nude (Crl:NU-Foxn1nu) mice; conditions: for mice died during treatment: 10 mice per group
Method: A negative control stapled peptide. […] Slow release 90 day 0.72 mg 17β-estradiol pellets (Innovative Research, Sarasota, Fla.) were implanted subcutaneously (sc) on the nape of the neck one day prior to tumor cell implantation (Day −1). On Day 0, MCF-7 tumor cells were implanted sc in the flank of female nude (Crl:NU-Foxn1nu) mice. On Day 18, the resultant sc tumors were measured using calipers to determine their length and width and the mice were weighed. The tumor sizes were calculated using the formula (length×width^2)/2 and expressed as cubic millimeters (mm^3). Mice with tumors smaller than 85.3 mm^3 or larger than 417.4 mm^3 were excluded from the subsequent group formation. Thirteen groups of mice, 10 mice per group, were formed by randomization such that the group mean tumor sizes were essentially equivalent (mean of groups±standard deviation of groups=180.7±17.5 mm^3).
This formulation was prepared once for the duration of the study. This vehicle was used as the vehicle control in the subsequent study.
Each group was assigned to a different treatment regimen. Group 1, as the vehicle negative control group, received the vehicle administered at 8 mL/kg body weight intravenously (iv) three times per week from Days 18-39. […] Group 4 received 6.7 mg/kg SP249 as an iv injection three times per week. […] Group 9 received 30 mg/kg SP252 as an iv injection three times per week.
During the dosing period the mice were weighed and tumors measured 1-2 times per week.

MDM2 = MDM2 (Homo sapiens, UniProt Q00987); assay: Competitive fluorescence polarization assay for MDM2; assay type: binding
Sequence of MDM2 (Q00987 1-125): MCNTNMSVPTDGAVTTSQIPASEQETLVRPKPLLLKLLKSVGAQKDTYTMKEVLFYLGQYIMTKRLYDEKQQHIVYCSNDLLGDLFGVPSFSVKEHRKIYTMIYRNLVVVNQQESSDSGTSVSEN
Method: Dilute 1 mM (in 100% DMSO) of FAM labeled linear peptide with DMSO to 100 μM (dilution 1:10). Then, dilute from 100 μM to 10 μM with water (dilution 1:10) and then dilute with FP buffer from 10 μM to 40 nM (dilution 1:250). This is the working solution which will be a 10 nM concentration in well (dilution 1:4). Keep the diluted FAM labeled peptide in the dark until use. • 4. […] Dilute 10 mM (in 100% DMSO) with DMSO to 5 mM (dilution 1:2). Then, dilute from 5 mM to 500 μM with H2O (dilution 1:10) and then dilute with FP buffer from 500 μM to 20 μM (dilution 1:25). […] Add 10 μl of 10 nM (4×) of FAM labeled peptide into each well and incubate for 3 hr to read.

[3] = 30 mg/kg iv three times per week

Row | Molar Ellipticity 50% TFE (222 in 50% TFE) [1] [deg cm^2dmol^−1] | Molar Ellipticity Benign (222 in 0% TFE) [1] [deg cm^2dmol^−1] | Molar Ellipticity TFE − Molar Ellipticity Benign [1] [deg cm^2dmol^−1] | SMILES | further results
1 | −17974 | −213.2 | −17760.8 | CC(=O)N[C@@H](CC(C)C)C(=O)N[C@H](C(=O)N[C@@H](Cc1ccccc1)C(=O)N[C@]1(C)CCCCCCC=CCCC[C@@](C)(C(=O)N[C@@H](C)C(=O)N[C@@H](C)C(=O)N[C@@H](C)C(=O)N[C@H](C)C(N)=O)NC(=O)[C@H](CC(C)C)NC(=O)[C@H](CCC(N)=O)NC(=O)[C@H](C)NC(=O)[C@H](Cc2c[nH]c3ccccc23)NC(=O)[C@H](Cc2ccc(O)cc2)NC(=O)[C@H](C)NC1=O)[C@@H](C)O (single isomer, unassigned) [compound 230] | 
2 |  |  |  | CC(=O)N[C@@H](CC(C)C)C(=O)N[C@H](C(=O)N[C@@H](Cc1ccccc1)C(=O)N[C@]1(C)CCCCCCC=CCCC[C@@](C)(C(=O)N[C@@H](CO)C(=O)N[C@@H](C)C(=O)N[C@@H](C)C(N)=O)NC(=O)[C@H](CC2CCC2)NC(=O)[C@H](CCC(N)=O)NC(=O)[C@H](C)NC(=O)[C@H](Cc2c[nH]c3ccccc23)NC(=O)[C@H](Cc2ccc(O)cc2)NC(=O)[C@H](CCC(=O)O)NC1=O)[C@@H](C)O [SP154] | % BW Change ([2]; 30 mg/kg 3x/wk iv, mice): +5.7%; No. with ≧10% BW Loss ([2]; 30 mg/kg 3x/wk iv, mice): 0/10; No. with ≧20% BW Loss or death ([2]; 30 mg/kg 3x/wk iv, mice): 0/10; tolerability of dosing regimen [2, 3]: well-tolerated; No. with ≧10% BW Loss ([2]; 40 mg/kg 2x/wk iv, mice): 0/10; No. with ≧20% BW Loss or death ([2]; 40 mg/kg 2x/wk iv, mice): 2/10; tolerability of dosing regimen ([2]; 40 mg/kg iv twice a week): not tolerable; mice died during treatment ([2]; 40 mg/kg iv twice a week): 2 mice
3 |  |  |  | CC[C@H](C)[C@H](NC(=O)[C@H](C)NC(=O)[C@H](C)NC(=O)[C@]1(C)CCCC=CCCCCCC[C@@](C)(NC(=O)[C@H](Cc2ccccc2)NC(=O)[C@@H](NC(=O)[C@H](CC(C)C)NC(C)=O)[C@@H](C)O)C(=O)N[C@@H](CCC(=O)O)C(=O)N[C@@H](Cc2ccc(C(=O)O)cc2)C(=O)N[C@@H](Cc2c[nH]c3ccccc23)C(=O)N[C@@H](C)C(=O)N[C@@H](CCC(N)=O)C(=O)N[C@@H](CC2CCC2)C(=O)N1)C(=O)N[C@H](C)C(N)=O [SP249] (Ac-LTF[R8]E[Phe(4-COOH)]WAQ[Cba][S5]AAI[dA]-NH2; staple 4-11) | mice died during treatment ([2]; […] iv three times per week): 4 mice
4 |  |  |  | CC(=O)N[C@@H](CC(C)C)C(=O)N[C@H](C(=O)N[C@@H](C)C(=O)N[C@]1(C)CCCCCCC=CCCC[C@@](C)(C(=O)N[C@@H](CO)C(=O)N[C@@H](C)C(=O)N[C@@H](C)C(N)=O)NC(=O)[C@H](CC2CCC2)NC(=O)[C@H](CCC(N)=O)NC(=O)[C@H](C)NC(=O)[C@H](Cc2c[nH]c3ccccc23)NC(=O)[C@H](Cc2ccc(O)cc2)NC(=O)[C@H](CCC(=O)O)NC1=O)[C@@H](C)O [SP252] | body weight loss or deaths [2, 3]: no body weight loss or deaths noted
5 |  |  |  | CC(=O)N[C@@H](CC(C)C)C(=O)N[C@H](C(=O)N[C@@H](Cc1ccccc1)C(=O)N[C@]1(C)CCCCCCn2cc(nn2)CCC[C@@](C)(C(=O)N[C@@H](C)C(=O)N[C@@H](C)C(=O)N[C@@H](C)C(=O)N[C@@H](C)C(=O)N[C@@H](C)C(=O)N[C@H](C)C(N)=O)NC(=O)[C@H](CC(C)C)NC(=O)[C@H](CCC(N)=O)NC(=O)[C@H](C)NC(=O)[C@H](Cc2c[nH]c3ccccc23)NC(=O)[C@H](Cc2ccc(O)cc2)NC(=O)[C@H](C)NC1=O)[C@@H](C)O [SP450, Ac-LTF$4rn6AYWAQL$4a5AAAAAa-NH2] | Ki (MDM2): 100 to 1000 nM
6 |  |  |  | CC(=O)N[C@@H](CC(C)C)C(=O)N[C@H](C(=O)N[C@@H](Cc1ccccc1)C(=O)N[C@]1(C)CCCCCCn2cc(nn2)CCC[C@@](C)(C(=O)N[C@@H](C)C(=O)N[C@@H](C)C(=O)N[C@@H](C)C(=O)N[C@@H](C)C(=O)N[C@@H](C)C(=O)N[C@H](C)C(N)=O)NC(=O)[C@H](CC(C)C)NC(=O)[C@H](CCC(N)=O)NC(=O)[C@H](C)NC(=O)[C@H](Cc2c[nH]c3ccccc23)NC(=O)[C@H](Cc2ccc(O)cc2)NC(=O)[C@H](CCC(=O)O)NC1=O)[C@@H](C)O [SP451, Ac-LTF$4rn6EYWAQL$4a5AAAAAa-NH2] | Ki (MDM2): 10 to 100 nM
7 | −19921.4 | 124 | −20045.4 | CC(=O)N[C@@H](CC(C)C)C(=O)N[C@H](C(=O)N[C@@H](Cc1ccccc1)C(=O)N[C@]1(C)CCCCCCC=CCCC[C@@](C)(C(=O)N[C@@H](CO)C(=O)N[C@@H](C)C(=O)N[C@@H](Cc2ccccc2)C(N)=O)NC(=O)[C@H](CC(C)C)NC(=O)[C@H](CCC(N)=O)NC(=O)[C@H](C)NC(=O)[C@H](Cc2c[nH]c3ccccc23)NC(=O)[C@H](Cc2ccc(O)cc2)NC(=O)[C@H](C)NC1=O)[C@@H](C)O [compound 7] (Ac-LTF[R8]AYWAQL[S5]SAF-NH2; staple 4-11) | 
8 | −16623.4 | −398.2 | 16225.2 | CC(=O)N[C@@H](CC(C)C)C(=O)N[C@H](C(=O)N[C@@H](Cc1ccccc1)C(=O)N[C@]1(C)CCCCCCC=CCCC[C@@](C)(C(=O)N[C@@H](CO)C(=O)N[C@@H](C)C(=O)N[C@@H](C)C(N)=O)NC(=O)[C@H](CC(C)C)NC(=O)[C@H](CCC(N)=O)NC(=O)[C@H](C)NC(=O)[C@H](Cc2c[nH]c3ccccc23)NC(=O)[C@H](Cc2ccc(O)cc2)NC(=O)[C@H](C)NC1=O)[C@@H](C)O [compound 11] (Ac-LTF[R8]AYWAQL[S5]SAA-NH2; staple 4-11) | 
9 | −21319.4 | −909 | 20410.4 | CCCC[C@H](NC(=O)[C@H](CCC(N)=O)NC(=O)[C@H](CCC(N)=O)NC(=O)[C@]1(C)CCCC=CCCCCCC[C@@](C)(NC(=O)[C@H](Cc2ccccc2)NC(C)=O)C(=O)N[C@@H](C)C(=O)N[C@@H](Cc2ccc(O)cc2)C(=O)N[C@@H](Cc2c[nH]c3ccccc23)C(=O)N[C@@H]([C@@H](C)O)C(=O)N[C@@H](C)C(=O)N[C@@H](CC(C)C)C(=O)N1)C(=O)N[C@@H](C(N)=O)C(C)C [compound 41] (Ac-F[R8]AYWTAL[S5]QQ[Nle][dV]-NH2; staple 2-9) | 
10 | −18247.4 | −15334.5 | 2912.9 | CC(=O)N[C@@H](CC(C)C)C(=O)N[C@H](C(=O)N[C@@H](Cc1ccccc1)C(=O)N[C@]1(C)CCCCCCC=CCCC[C@@](C)(C(=O)N[C@@H](Cc2c[nH]cn2)C(=O)N[C@@H](Cc2c[nH]cn2)C(=O)N[C@@H](CC(C)C)C(=O)N[C@H](C)C(N)=O)NC(=O)[C@H](CC(C)C)NC(=O)[C@H](CCC(N)=O)NC(=O)[C@H](C)NC(=O)[C@H](Cc2c[nH]c3ccccc23)NC(=O)[C@H](Cc2ccc(O)cc2)NC(=O)[C@H](C)NC1=O)[C@@H](C)O [compound 43] (Ac-LTF[R8]AYWAQL[S5]HHL[dA]-NH2; staple 4-11) | 
11 | −21509.7 | −102.6 |  | CCCC[C@H](NC(=O)[C@H](C)NC(=O)[C@H](C)NC(=O)[C@]1(C)CCC/C=C/CCCCCC[C@@](C)(NC(=O)[C@H](Cc2ccccc2)NC(=O)[C@@H](NC(=O)[C@H](CC(C)C)NC(C)=O)[C@@H](C)O)C(=O)N[C@@H](C)C(=O)N[C@@H](Cc2ccc(O)cc2)C(=O)N[C@@H](Cc2c[nH]c3ccccc23)C(=O)N[C@@H](C)C(=O)N[C@@H](CCC(N)=O)C(=O)N[C@@H](CC(C)C)C(=O)N1)C(=O)N[C@@H](C)C(N)=O [compound 69] | 
12 | −17957 | −121.2 | −17835.9 | CC[C@H](C)[C@H](NC(=O)[C@H](C)NC(=O)[C@H](C)NC(=O)[C@]1(C)CCC/C=C/CCCCCC[C@@](C)(NC(=O)[C@H](Cc2ccccc2)NC(=O)[C@@H](NC(=O)[C@H](CC(C)C)NC(C)=O)[C@@H](C)O)C(=O)N[C@@H](C)C(=O)N[C@@H](Cc2ccc(O)cc2)C(=O)N[C@@H](Cc2c[nH]c3ccccc23)C(=O)N[C@@H](C)C(=O)N[C@@H](CCC(N)=O)C(=O)N[C@@H](CC(C)C)C(=O)N1)C(=O)N[C@H](C)C(N)=O [compound 71] | 
13 | −19032.6 | −477.9 | −18554.7 | CC(=O)N[C@@H](CC(C)C)C(=O)N[C@H](C(=O)N[C@@H](Cc1ccccc1)C(=O)N[C@]1(C)CCCCCCC=CCCC[C@@](C)(C(=O)N[C@@H](C)C(=O)N[C@@H](C)C(=O)N[C@@H](C)C(=O)N[C@@H](C)C(=O)N[C@H](C)C(N)=O)NC(=O)[C@H](CC(C)C)NC(=O)[C@H](CCC(N)=O)NC(=O)[C@H](C)NC(=O)[C@H](Cc2c[nH]c3ccccc23)NC(=O)[C@H](Cc2ccc(O)cc2)NC(=O)[C@H](C)NC1=O)[C@@H](C)O [compound 233] | 
